# Measurements taken from ChEMBL document CHEMBL4312011, “Synthesis and biological evaluation of triterpenoid thiazoles derived from betulonic acid, dihydrobetulonic acid, and ursonic acid” (Eur J Med Chem, 2020).
# Activity calls are given as the source filed them. No cut-off for these calls is given here.
# Experiments:
# [1] = Stability in human plasma assessed as parent compound remaining at 2 uM incubated for 120 mins by RF-MS analysis; assay type: ADME, cell-free; conditions: read-out: Stability
# U2OS = test: Cytotoxicity against human U2OS cells incubated for 72 hrs by MTS assay; assay type: functional, cell-based
# [2] = Microsomal stability in human liver microsomes assessed as parent compound remaining at 2 uM incubated for 60 mins by RF-MS analysis; assay type: ADME, Microsome; conditions: read-out: Stability
# BJ = test: Cytotoxicity against human BJ cells incubated for 72 hrs by MTS assay; assay type: cell-based
# CCRF-CEM [3] = test: Induction of apoptosis in human CCRF-CEM cells assessed as necrotic cells at 5 times IC50 concentration measured after 24 hrs by AnnexinV-FITC/propidium iodide staining based flow cytometry analysis (reference value: 0.1 %); assay type: functional
# CCRF-CEM [4] = test: Induction of apoptosis in human CCRF-CEM cells assessed as increase in BAX expression at 5 times IC50 concentration measured after 24 hrs by Western blot analysis; assay type: functional, cell-based
# [5] = Cytotoxicity against human CEM-DNR-bulk cells incubated for 72 hrs by MTS assay; assay type: functional, cell-based
# [6] = Chemical stability of compound in PBS buffer assessed as parent compound remaining at 2 uM at pH 7.4 and 37 degC incubated for 30 mins by RF-MS analysis; assay type: physicochemical; conditions: read-out: Stability
# [7] = Chemical stability of compound in PBS buffer assessed as parent compound remaining at 2 uM at pH 7.4 and 37 degC incubated for 60 mins by RF-MS analysis; assay type: physicochemical; conditions: read-out: Stability
# [8] = Solubility of compound in 10 % DMSO in water by HPLC-MS analysis; assay type: physicochemical
# CCRF-CEM [9] = test: Induction of apoptosis in human CCRF-CEM cells assessed as early apoptotic cells at 5 times IC50 concentration measured after 24 hrs by AnnexinV-FITC/propidium iodide staining based flow cytometry analysis (reference value: 2.8 %); assay type: functional
# CCRF-CEM [10] = test: Induction of apoptosis in human CCRF-CEM cells assessed as increase in caspase 3/7 activity using Ac-DEVD-AMC as substrate at 5 times IC50 concentration measured after 24 hrs by fluorescence assay; assay type: functional, cell-based
# CCRF-CEM [11] = test: Induction of apoptosis in human CCRF-CEM cells assessed as activation of caspase 7 at 5 times IC50 concentration measured after 24 hrs by Western blot analysis; assay type: functional, cell-based
# HCT-116 [12] = test: Cytotoxicity against human HCT116 cells incubated for 72 hrs by MTS assay; assay type: functional, cell-based; conditions: HCT-116, 72 h
# [13] = Microsomal stability in human liver microsomes assessed as parent compound remaining at 2 uM incubated for 15 mins by RF-MS analysis; assay type: ADME, Microsome; conditions: read-out: Stability
# CCRF-CEM [14] = test: Induction of apoptosis in human CCRF-CEM cells assessed as viable cells at 5 times IC50 concentration measured after 24 hrs by AnnexinV-FITC/propidium iodide staining based flow cytometry analysis (reference value: 97 %); assay type: functional
# MRC5 = test: Cytotoxicity against human MRC5 cells incubated for 72 hrs by MTS assay; assay type: cell-based; conditions: MRC5, 72 h
# K562 = test: Cytotoxicity against human K562 cells incubated for 72 hrs by MTS assay; assay type: functional, cell-based; conditions: K562, 72 h
# CCRF-CEM [15] = test: Induction of apoptosis in human CCRF-CEM cells assessed as activation of caspase 3 at 5 times IC50 concentration measured after 24 hrs by Western blot analysis; assay type: functional, cell-based
# [16] = Chemical stability of compound in PBS buffer assessed as parent compound remaining at 2 uM at pH 7.4 and 37 degC incubated for 15 mins by RF-MS analysis; assay type: physicochemical; conditions: read-out: Stability
# [17] = Chemical stability of compound in PBS buffer assessed as parent compound remaining at 2 uM at pH 7.4 and 37 degC incubated for 120 mins by RF-MS analysis; assay type: physicochemical; conditions: read-out: Stability
# CCRF-CEM [18] = test: Induction of mitochondrial membrane depolarization in human CCRF-CEM cells at 5 times IC50 measured after 24 hrs by JC-1 staining based flow cytometry analysis (reference value: 8.4 %); assay type: functional
# [19] = Stability in human plasma assessed as parent compound remaining at 2 uM incubated for 15 mins by RF-MS analysis; assay type: ADME, cell-free; conditions: read-out: Stability
# [20] = Permeability of compound in PBS buffer assessed as permeability coefficient at pH 7.4 incubated for 18 hrs by PAMPA based RF-MS analysis; assay type: ADME; conditions: pH 7.4, 18 h
# CCRF-CEM [21] = test: Cell cycle arrest in human CCRF-CEM cells assessed as increase in G2/M phase accumulation at 5 times IC50 measured after 24 hrs by propidium iodide/RNase staining based flow cytometry analysis; assay type: functional
# [22] = Solubility of compound in 0.5 % DMSO in water by HPLC-MS analysis; assay type: physicochemical
# [23] = Stability in human plasma assessed as parent compound remaining at 2 uM incubated for 30 mins by RF-MS analysis; assay type: ADME, cell-free; conditions: read-out: Stability
# [24] = Microsomal stability in human liver microsomes assessed as parent compound remaining at 2 uM incubated for 30 mins by RF-MS analysis; assay type: ADME, Microsome; conditions: read-out: Stability
# CCRF-CEM [25] = test: Induction of apoptosis in human CCRF-CEM cells assessed as late apoptotic cells at 5 times IC50 concentration measured after 24 hrs by AnnexinV-FITC/propidium iodide staining based flow cytometry analysis (reference value: 0.1 %); assay type: functional
# CCRF-CEM [26] = test: Cell cycle arrest in human CCRF-CEM cells assessed as decrease in proportion of cells in S phase at 5 times IC50 measured after 24 hrs by propidium iodide/RNase staining based flow cytometry analysis; assay type: functional
# CCRF-CEM [27] = test: Induction of apoptosis in human CCRF-CEM cells assessed as activation of PARP cleavage at 5 times IC50 concentration measured after 24 hrs by Western blot analysis; assay type: functional, cell-based
# CCRF-CEM [28] = test: Cell cycle arrest in human CCRF-CEM cells assessed as decrease in proportion of cells in G1 phase at 5 times IC50 measured after 24 hrs by propidium iodide/RNase staining based flow cytometry analysis; assay type: functional
# CCRF-CEM [29] = test: Cytotoxicity against human CCRF-CEM cells incubated for 72 hrs by MTS assay; assay type: functional, cell-based
# [30] = Protein binding in human plasma at 10 uM measured after 4 hrs by rapid equilibrium dialysis; assay type: ADME, cell-free; conditions: read-out: PPB (converted)
# [31] = Stability in human plasma assessed as parent compound remaining at 2 uM incubated for 60 mins by RF-MS analysis; assay type: ADME, cell-free; conditions: read-out: Stability
# CCRF-CEM [32] = test: Induction of apoptosis in human CCRF-CEM cells assessed as activation of procaspase 8 at 5 times IC50 concentration measured after 24 hrs by Western blot analysis; assay type: functional, cell-based
# HCT-116 [33] = test: Cytotoxicity against p53 knockout human HCT116 cells incubated for 72 hrs by MTS assay; assay type: functional, cell-based; conditions: HCT-116, 72 h
# [34] = Cytotoxicity against human K562-TAX cells incubated for 72 hrs by MTS assay; assay type: functional, cell-based
# CCRF-CEM [35] = test: Induction of apoptosis in human CCRF-CEM cells assessed as decrease in Bcl-2 expression at 5 times IC50 concentration measured after 24 hrs by Western blot analysis; assay type: functional, cell-based
# A549 = test: Cytotoxicity against human A549 cells incubated for 72 hrs by MTS assay; assay type: functional, cell-based; conditions: A549, 72 h
# [36] = Solubility of compound in 5 % DMSO in water by HPLC-MS analysis; assay type: physicochemical
compound,measurement,setting,value
C[C@H]1[C@H](C)CC[C@]2(C(=O)O)CC[C@]3(C)C(=CC[C@@H]4[C@@]5(C)CC(Br)C(=O)C(C)(C)[C@@H]5CC[C@]43C)[C@H]12 (stereo partly specified),"remaining at 2 h, 2 µM",[1],85.5%
same,IC50,U2OS,20.7 µM
same,"remaining at 1 h, 2 µM",[2],66.2%
same,IC50,BJ,49.5 µM
same,Activity,CCRF-CEM [3],0.4%
same,Activity,CCRF-CEM [4],Active
same,IC50,[5],21.8 µM
same,"remaining at 0.5 h, 2 µM",[6],99.2%
same,"remaining at 1 h, 2 µM",[7],99.1%
same,solubility,[8],83 µM
same,Activity,CCRF-CEM [9],16.5%
same,Activity,CCRF-CEM [10],Active
same,Activity,CCRF-CEM [11],Active
same,IC50,HCT-116 [12],28.4 µM
same,"remaining at 0.25 h, 2 µM",[13],93.4%
same,Activity,CCRF-CEM [14],80.7%
same,IC50,MRC5,29.3 µM
same,IC50,K562,38.8 µM
same,Activity,CCRF-CEM [15],Active
same,"remaining at 0.25 h, 2 µM",[16],99.6%
same,"remaining at 2 h, 2 µM",[17],88.5%
same,Activity,CCRF-CEM [18],36.3%
same,"remaining at 0.25 h, 2 µM",[19],98.5%
same,log(permeability),[20],-4.93
same,Activity,CCRF-CEM [21],Active
same,solubility,[22],24 µM
same,"remaining at 0.5 h, 2 µM",[23],98.2%
same,"remaining at 0.5 h, 2 µM",[24],80.7%
same,Activity,CCRF-CEM [25],2.4%
same,Activity,CCRF-CEM [26],Active
same,Activity,CCRF-CEM [27],Active
same,Activity,CCRF-CEM [28],Active
same,IC50,CCRF-CEM [29],3.6 µM
same,"fraction unbound at 4 h, 10 µM",[30],0.176
same,"remaining at 1 h, 2 µM",[31],94.9%
same,Activity,CCRF-CEM [32],Active
same,IC50,HCT-116 [33],29.8 µM
same,IC50,[34],25.1 µM
same,Activity,CCRF-CEM [35],Active
same,IC50,A549,27.6 µM
same,solubility,[36],30 µM
